pIC50: −log10 of the molar value. Entries after “also recorded” stand apart in the source; their conditions may differ.
Legend:
A549 = assay: Cytotoxicity in NSCLC tumor models; assay type: cell-based, human; details: A549, p53 wt; N = 3
Description: (§1) The cell lines include cell lines with wild-type p53, cell lines with mutant p53, and cell lines in which p53 has been knocked out (“null”). The properties of these cell lines are described in F. Bunz et al., “Requirement for p53 and p21 to Sustain G2 Arrest After DNA Damage,” Science 282: 1497-1501 (1998), incorporated herein by this reference.

H1299 = assay: Cytotoxicity in NSCLC tumor models; assay type: cell-based, human; details: H1299, p53 null; N = 3
Description: as §1

H157 = assay: Cytotoxicity in NSCLC tumor models; assay type: cell-based, human; details: H157, p53 mu; N = 3
Description: as §1

H1975 = assay: Cytotoxicity in NSCLC tumor models; assay type: cell-based, human; details: H1975, p53 mu; N = 3
Description: as §1

H2122 = assay: Cytotoxicity in NSCLC tumor models; assay type: cell-based, human; details: H2122, p53 mu; N = 3
Description: as §1

H226 = assay: Cytotoxicity in NSCLC tumor models; assay type: cell-based, human; details: H226, p53 wt; N = 3
Description: as §1

H460 = assay: Cytotoxicity in NSCLC tumor models; assay type: cell-based, human; details: H460, p53 wt; N = 3
Description: as §1

H838 = assay: Cytotoxicity in NSCLC tumor models; assay type: cell-based, human; details: H838, p53 wt; N = 3
Description: as §1

SkLU1 = assay: Cytotoxicity in NSCLC tumor models; assay type: cell-based, human; details: SkLU1, p53 mu; N = 3
Description: as §1

[1] = system: NSCLC cell lines other than H460; assay: Cytotoxicity in NSCLC tumor models, range over the cell lines other than H460; assay type: cell-based, human; details: NSCLC cell lines other than H460, single agents
[2] = system: A549 (TKI-sensitive) human lung adenocarcinoma xenograft tumors; assay: A549 NSCLC xenograft tumor model in female Rag2 mice
Method: (§2) Rag2 mice bearing subcutaneous human lung adenocarcinoma xenograft tumors of either TKI-resistant (H1975) or TKI-sensitive (A549) origin were treated.
(§3) Two human NSCLC cell lines, A549 (TKI-sensitive) and H1975 (TKI-resistant), were used as xenograft tumor models in female Rag2 mice. The mice were 6 to 8 weeks of age and weighed 18-23 grams. 10 mice were used per group.
Cisplatin was used in normal saline at a dose of 5 mg/kg. Administration was intravenous.
Administration was intraperitoneal.
Treatment was initiated at a tumor volume of 100 mm^3 to 150 mm^3.
The cells were started from a frozen vial of lab stock that were frozen down from the ATCC original vial and kept in liquid nitrogen. Cell cultures with a passage number of 3 to 10 and a confluence of 80%-90% were used. […] Cells were subcultured once weekly with a split ratio 1:3 to 1:8 and expanded.
For cell preparation and harvesting for subcutaneous (s.c.) inoculation, the cells were rinsed briefly once with Hanks Balanced Salt Solution without calcium or magnesium. […] The cells were allowed to sit at 37° C. for a few minutes. The cells were observed under an inverted microscope until the cell layer was dispersed, fresh medium was added, 50 μL of cell suspension was taken and mixed with trypan blue (1:1), and the cells were counted and cell viability assessed by using Cellometer Auto T4. The cells were centrifuged at 200×g for 7 minutes and the supernatant was aspirated. The cells were resuspended in growth medium to obtain a concentration of 100×10^6 cells/mL. For inoculation, 5×10^6 cells were used in an injection volume of 50 μL per mouse in 1:1 Matrigel.
On day 0, tumor cells were implanted subcutaneously into mice in a volume of 50 μL in Matrigel using a 28-gauge needle; injection of the tumor cells was in the back of the mice. Mice were randomly assigned to groups based on tumor volume.
For administration, 5 mL of 0.9% sodium chloride for injection, USP (saline) was added to yield a DAG solution with a concentration of 8 mg/mL.
Mice were injected with the required volume to administer the prescribed dose (mg/kg) to the animals based on individual mouse weights using a 28-gauge needle. The injection volume was 200 μL for a 20-g mouse. The mice were briefly (less than 30 seconds) restrained during intravenous injections. Dilation of the vein for intravenous injections was achieved by holding the animals under a heat lamp for a period of between 1-2 minutes.
Mice were individually weighed and injected intraperitoneally according to body weight at the specified injection concentration (see Table 1). The injection volume was based on 200 μL per 20-g mouse. The abdominal surface was wiped down with 70% isopropyl alcohol to clean the injection site.
Tumor growth was monitored by measuring tumor dimensions with calipers beginning on the first day of treatment. Tumor length and width measurements were obtained each Monday, Wednesday, and Friday. Tumor volumes were calculated according to the equation L×W^2/2 with the length (in mm) being defined as the longer axis of the tumor. Animals were weighed at the time of tumor measurement. Tumors were allowed to grow to a maximum of 800 mm^3 before termination.
All animals had blood collected by cardiac puncture at termination for CBC (complete blood count) with differentiation.
In particular, signs of ill-health were based on body weight loss, change in appetite, and behavioral signs such as altered gait, lethargy, and gross manifestations of stress.

[3] = system: H1975 (TKI-resistant) human lung adenocarcinoma xenograft tumors; assay: H1975 NSCLC xenograft tumor model in female Rag2 mice
Method: as §2, §3
Rag2 mice bearing subcutaneous human lung adenocarcinoma xenograft tumors of either TKI-sensitive (A549) or TKI-resistant (H1975) origin were treated. […] Saline was used as control treatment. Disease progression was evaluated by tumor volume, clinical observations and body weight measurements. Blood samples were analyzed for CBC/differential analyses to assess myelosuppression or other changes in blood chemistry.
Cell number for inoculation was 5×10^6 cells for A549 cells in an injection volume of 50 μL per animal. For H1975 cells, cell number for inoculation was 2×10^6 cells in an injection volume of 50 μL per animal.
Treatment was initiated at average tumor volume of 100-150 mm^3.
Tumor growth delay (TGD) was calculated according to Equation (2): TGD=DTtx−DTcontrol (2).
For these calculations, TV is tumor volume, tx is treatment, int is initial, DT is doubling time for mean tumor volume from 200 mm^3 to 400 mm^3 for A549 or from 300 mm^3 to 600 mm^3 for H1975. MTV is mean tumor volume in mm^3 and TCR is tumor control ratio.
Disease progression was evaluated by tumor volume, clinical observations and body weight measurements.

RIF-1 cell-line = assay: Standard syngeneic mouse fibrosarcoma model, tumor growth delay; assay type: in vivo; details: 4 mg/kg, single IP injection, RIF-1 in C3H mice; for Tumor Delay: vs untreated
[4] = cited from earlier work
[5] = 5 mg/kg i.v. Q7D × 3, A549 model
[6] = group 2, 5 mg/kg Q7D×3 i.v., A549 model, days post-inoculation

Structure (SMILES)	IC50 (A549)	IC50 (H1299)	IC50 (H157)	IC50 (H1975)	IC50 (H2122)	IC50 (H226)	IC50 (H460)	IC50 (H838)	IC50 (SkLU1)	pIC50 [1]	further results
O=C1[O][Pt]2([NH][C@@H]3CCCC[C@H]3[NH]2)[O]C1=O [Oxaliplatin, oxaliplatin]	0.57 µM	0.64 µM	2.04 µM	0.51 µM	1.42 µM	0.82 µM	0.36 µM	2.63 µM	2.02 µM	5.59 to 6.22	
N.N.[Cl][Pt][Cl] [Cisplatin, cisplatin, reference compound]	0.74 µM	1.2 µM	2.16 µM	0.45 µM	1.07 µM	1.82 µM	0.45 µM	1.18 µM	0.89 µM	5.66 to 6.30	MTV at Day 68 [2, 5]: 460 mm^3; Median survival [2, 5]: 72 days; TCR at Day 68 ([2]; 5 mg/kg i.v. Q7D × 3, A549 model, tumor control ratio): 0.72; TGD ([2]; 5 mg/kg i.v. Q7D × 3, A549 model, tumor growth delay vs untreated control, doubling time 200 to 400 mm^3): 4 days; TGI (%) ([2]; 5 mg/kg i.v. Q7D × 3, A549 model, tumor growth inhibition): 29%; body weight / tolerability of the dosage ([2]; 5 mg/kg i.v. Q7D × 3, A549 tumor-bearing Rag2 mice): body weight loss was observed; also recorded: near the MTD; number of animals remaining on study on day 70 ([2]; group 2, 5 mg/kg Q7D×3 i.v., A549 model): 6/10; day on which a mean tumor volume of 200 mm^3 was observed [2, 6]: 49 days; day on which a mean tumor volume of 400 mm^3 was reached [2, 6]: 66 days; doubling time ([2]; group 2, 5 mg/kg Q7D×3 i.v., A549 model, mean tumor volume 200 to 400 mm^3): 17; MTV at Day 31 ([3]; 5 mg/kg i.v. Q7D × 3): 381 mm^3; Median survival ([3]; 5 mg/kg i.v. Q7D × 3): 31 days; body weight ([3]; 5 mg/kg i.v. Q7D × 3 (group 2)): Body weight loss was observed; TCR at Day 31 ([3]; 5 mg/kg i.v. Q7D × 3, tumor control ratio): 0.83; Days to 4 × Median Tumor Size (RIF-1 cell-line): 7.75 days; Tumor Delay (RIF-1 cell-line): 1.45 days; Tumor Delay (RIF-1 cell-line; listed as cisplatin): 1.5 days
O[C@H]([C@H](O)[C@@H](O)CBr)[C@H](O)CBr [dibromodulcitol]											absorption by the oral route [4]: rapid and fairly complete
